{"source": "the supplement of paper PMC10307832", "experiment_in_all_cases": "relative viability (nuclei count vs DMSO), 5 days (fraction); higher = more cells survive", "key": {"[1]": {"test_system": "NCI-H2085", "procedure,_shortened": "(§1)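 Dosing by pin tool came one day after lung cancer cell lines were seeded in 1536-well plates, using either one drug or a fixed anchor-drug dose plus five library-drug doses (not always all listed) in √10 steps. After 5 days, nuclei were counted on 4× images. Relative viability is treated-well nuclei count divided by vehicle-well nuclei count, and values are medians of duplicate plates.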"}, "[2]": {"test_system": "A-427", "procedure,_shortened": "as §1"}, "[3]": {"test_system": "HARA", "procedure,_shortened": "as §1"}, "[4]": {"test_system": "NCI-H596", "procedure,_shortened": "as §1"}, "[5]": {"test_system": "NCI-H661", "procedure,_shortened": "as §1"}, "[6]": {"test_system": "NCI-H2126", "procedure,_shortened": "as §1"}, "[7]": {"test_system": "NCI-H1651", "procedure,_shortened": "as §1"}, "[8]": {"test_system": "NCI-H520", "procedure,_shortened": "as §1"}, "[9]": {"test_system": "ABC-1", "procedure,_shortened": "as §1"}, "[10]": {"test_system": "NCI-H460", "procedure,_shortened": "as §1"}, "[11]": {"test_system": "RERF-LC-KJ", "procedure,_shortened": "as §1"}, "[12]": {"test_system": "NCI-H727", "procedure,_shortened": "as §1"}, "[13]": {"test_system": "NCI-H1666", "procedure,_shortened": "as §1"}, "[14]": {"test_system": "BEN", "procedure,_shortened": "as §1"}, "[15]": {"test_system": "NCI-H1734", "procedure,_shortened": "as §1"}, "[16]": {"test_system": "LOU-NH91", "procedure,_shortened": "as §1"}, "[17]": {"test_system": "NCI-H647", "procedure,_shortened": "as §1"}, "[18]": {"test_system": "NCI-H1975", "procedure,_shortened": "as §1"}, "[19]": {"test_system": "LCLC-103H", "procedure,_shortened": "as §1"}, "[20]": {"test_system": "CAL-12T", "procedure,_shortened": "as §1"}, "[21]": {"test_system": "NCI-H838", "procedure,_shortened": "as §1"}, "[22]": {"test_system": "NCI-H1944", "procedure,_shortened": "as §1"}}}
{"smiles": "Cc1csc(=NC2CCCCC2)n1/N=C/c1ccc(O)c(O)c1O", "note": "[MIM1] + Cc1nc(NC(=O)N2CCC[C@H]2C(N)=O)sc1-c1ccnc(C(C)(C)C(F)(F)F)c1 [Alpelisib] (partner 2 µM)", "values": [{"measurement": "relative viability", "setting": "[1]; first compound 0.2 µM", "value": 0.946}, {"measurement": "relative viability", "setting": "[1]; first compound 0.6325 µM", "value": 1.02}, {"measurement": "relative viability", "setting": "[1]; first compound 2 µM", "value": 0.984}, {"measurement": "relative viability", "setting": "[1]; first compound 6.325 µM", "value": 0.84}, {"measurement": "relative viability", "setting": "[1]; first compound 20 µM", "value": 0.882}, {"measurement": "relative viability", "setting": "[2]; first compound 0.2 µM", "value": 1.09}, {"measurement": "relative viability", "setting": "[2]; first compound 0.6325 µM", "value": 1.06}, {"measurement": "relative viability", "setting": "[2]; first compound 2 µM", "value": 1.15}, {"measurement": "relative viability", "setting": "[2]; first compound 6.325 µM", "value": 1.06}, {"measurement": "relative viability", "setting": "[2]; first compound 20 µM", "value": 0.335}, {"measurement": "relative viability", "setting": "[3]; first compound 0.2 µM", "value": 0.887}, {"measurement": "relative viability", "setting": "[3]; first compound 0.6325 µM", "value": 0.857}, {"measurement": "relative viability", "setting": "[3]; first compound 2 µM", "value": 0.878}, {"measurement": "relative viability", "setting": "[3]; first compound 6.325 µM", "value": 0.361}, {"measurement": "relative viability", "setting": "[3]; first compound 20 µM", "value": 0.165}, {"measurement": "relative viability", "setting": "[4]; first compound 0.2 µM", "value": 0.491}, {"measurement": "relative viability", "setting": "[4]; first compound 0.6325 µM", "value": 0.501}, {"measurement": "relative viability", "setting": "[4]; first compound 2 µM", "value": 0.525}, {"measurement": "relative viability", "setting": "[4]; first compound 6.325 µM", "value": 0.497}, {"measurement": "relative viability", "setting": "[4]; first compound 20 µM", "value": 0.48}, {"measurement": "relative viability", "setting": "[5]; first compound 0.2 µM", "value": 0.728}, {"measurement": "relative viability", "setting": "[5]; first compound 0.6325 µM", "value": 0.847}, {"measurement": "relative viability", "setting": "[5]; first compound 2 µM", "value": 0.655}, {"measurement": "relative viability", "setting": "[5]; first compound 6.325 µM", "value": 0.472}, {"measurement": "relative viability", "setting": "[5]; first compound 20 µM", "value": 0.305}, {"measurement": "relative viability", "setting": "[6]; first compound 0.2 µM", "value": 0.708}, {"measurement": "relative viability", "setting": "[6]; first compound 0.6325 µM", "value": 0.756}, {"measurement": "relative viability", "setting": "[6]; first compound 2 µM", "value": 0.776}, {"measurement": "relative viability", "setting": "[6]; first compound 6.325 µM", "value": 0.758}, {"measurement": "relative viability", "setting": "[6]; first compound 20 µM", "value": 0.727}, {"measurement": "relative viability", "setting": "[7]; first compound 0.2 µM", "value": 0.927}, {"measurement": "relative viability", "setting": "[7]; first compound 0.6325 µM", "value": 0.974}, {"measurement": "relative viability", "setting": "[7]; first compound 2 µM", "value": 0.921}, {"measurement": "relative viability", "setting": "[7]; first compound 6.325 µM", "value": 0.793}, {"measurement": "relative viability", "setting": "[7]; first compound 20 µM", "value": 0.936}, {"measurement": "relative viability", "setting": "[8]; first compound 0.2 µM", "value": 0.902}, {"measurement": "relative viability", "setting": "[8]; first compound 0.6325 µM", "value": 0.9}, {"measurement": "relative viability", "setting": "[8]; first compound 2 µM", "value": 1.19}, {"measurement": "relative viability", "setting": "[8]; first compound 6.325 µM", "value": 0.633}, {"measurement": "relative viability", "setting": "[8]; first compound 20 µM", "value": 0.41}, {"measurement": "relative viability", "setting": "[9]; first compound 0.2 µM", "value": 1.02}, {"measurement": "relative viability", "setting": "[9]; first compound 0.6325 µM", "value": 1.05}, {"measurement": "relative viability", "setting": "[9]; first compound 2 µM", "value": 0.913}, {"measurement": "relative viability", "setting": "[9]; first compound 6.325 µM", "value": 0.816}, {"measurement": "relative viability", "setting": "[9]; first compound 20 µM", "value": 0.322}, {"measurement": "relative viability", "setting": "[10]; first compound 0.2 µM", "value": 0.43}, {"measurement": "relative viability", "setting": "[10]; first compound 0.6325 µM", "value": 0.549}, {"measurement": "relative viability", "setting": "[10]; first compound 2 µM", "value": 0.456}, {"measurement": "relative viability", "setting": "[10]; first compound 6.325 µM", "value": 0.204}, {"measurement": "relative viability", "setting": "[10]; first compound 20 µM", "value": 0.0234}, {"measurement": "relative viability", "setting": "[11]; first compound 0.2 µM", "value": 0.802}, {"measurement": "relative viability", "setting": "[11]; first compound 0.6325 µM", "value": 0.801}, {"measurement": "relative viability", "setting": "[11]; first compound 2 µM", "value": 0.704}, {"measurement": "relative viability", "setting": "[11]; first compound 6.325 µM", "value": 0.668}, {"measurement": "relative viability", "setting": "[11]; first compound 20 µM", "value": 0.213}, {"measurement": "relative viability", "setting": "[12]; first compound 0.2 µM", "value": 0.595}, {"measurement": "relative viability", "setting": "[12]; first compound 0.6325 µM", "value": 0.614}, {"measurement": "relative viability", "setting": "[12]; first compound 2 µM", "value": 0.534}, {"measurement": "relative viability", "setting": "[12]; first compound 6.325 µM", "value": 0.482}, {"measurement": "relative viability", "setting": "[12]; first compound 20 µM", "value": 0.397}, {"measurement": "relative viability", "setting": "[13]; first compound 0.2 µM", "value": 0.827}, {"measurement": "relative viability", "setting": "[13]; first compound 0.6325 µM", "value": 0.877}, {"measurement": "relative viability", "setting": "[13]; first compound 2 µM", "value": 0.815}, {"measurement": "relative viability", "setting": "[13]; first compound 6.325 µM", "value": 0.659}, {"measurement": "relative viability", "setting": "[13]; first compound 20 µM", "value": 0.405}, {"measurement": "relative viability", "setting": "[14]; first compound 0.2 µM", "value": 1.13}, {"measurement": "relative viability", "setting": "[14]; first compound 0.6325 µM", "value": 0.99}, {"measurement": "relative viability", "setting": "[14]; first compound 2 µM", "value": 1.21}, {"measurement": "relative viability", "setting": "[14]; first compound 6.325 µM", "value": 1.01}, {"measurement": "relative viability", "setting": "[14]; first compound 20 µM", "value": 0.445}, {"measurement": "relative viability", "setting": "[15]; first compound 0.2 µM", "value": 0.738}, {"measurement": "relative viability", "setting": "[15]; first compound 0.6325 µM", "value": 0.655}, {"measurement": "relative viability", "setting": "[15]; first compound 2 µM", "value": 0.696}, {"measurement": "relative viability", "setting": "[15]; first compound 6.325 µM", "value": 0.655}, {"measurement": "relative viability", "setting": "[15]; first compound 20 µM", "value": 0.38}, {"measurement": "relative viability", "setting": "[16]; first compound 0.2 µM", "value": 0.704}, {"measurement": "relative viability", "setting": "[16]; first compound 0.6325 µM", "value": 0.779}, {"measurement": "relative viability", "setting": "[16]; first compound 2 µM", "value": 0.591}, {"measurement": "relative viability", "setting": "[16]; first compound 6.325 µM", "value": 0.641}, {"measurement": "relative viability", "setting": "[16]; first compound 20 µM", "value": 0.561}, {"measurement": "relative viability", "setting": "[17]; first compound 0.2 µM", "value": 1.23}, {"measurement": "relative viability", "setting": "[17]; first compound 0.6325 µM", "value": 1.14}, {"measurement": "relative viability", "setting": "[17]; first compound 2 µM", "value": 1.12}, {"measurement": "relative viability", "setting": "[17]; first compound 6.325 µM", "value": 0.991}, {"measurement": "relative viability", "setting": "[17]; first compound 20 µM", "value": 0.213}, {"measurement": "relative viability", "setting": "[18]; first compound 0.2 µM", "value": 0.63}, {"measurement": "relative viability", "setting": "[18]; first compound 0.6325 µM", "value": 0.624}, {"measurement": "relative viability", "setting": "[18]; first compound 2 µM", "value": 0.569}, {"measurement": "relative viability", "setting": "[18]; first compound 6.325 µM", "value": 0.391}, {"measurement": "relative viability", "setting": "[18]; first compound 20 µM", "value": 0.313}, {"measurement": "relative viability", "setting": "[19]; first compound 0.2 µM", "value": 0.9}, {"measurement": "relative viability", "setting": "[19]; first compound 0.6325 µM", "value": 1.08}, {"measurement": "relative viability", "setting": "[19]; first compound 2 µM", "value": 1.08}, {"measurement": "relative viability", "setting": "[19]; first compound 6.325 µM", "value": 0.913}, {"measurement": "relative viability", "setting": "[19]; first compound 20 µM", "value": 0.928}, {"measurement": "relative viability", "setting": "[20]; first compound 0.2 µM", "value": 1.14}, {"measurement": "relative viability", "setting": "[20]; first compound 0.6325 µM", "value": 1.36}, {"measurement": "relative viability", "setting": "[20]; first compound 2 µM", "value": 1.24}, {"measurement": "relative viability", "setting": "[20]; first compound 6.325 µM", "value": 0.997}, {"measurement": "relative viability", "setting": "[20]; first compound 20 µM", "value": 0.973}, {"measurement": "relative viability", "setting": "[21]; first compound 0.2 µM", "value": 0.974}, {"measurement": "relative viability", "setting": "[21]; first compound 0.6325 µM", "value": 1}, {"measurement": "relative viability", "setting": "[21]; first compound 2 µM", "value": 0.83}, {"measurement": "relative viability", "setting": "[21]; first compound 6.325 µM", "value": 0.827}, {"measurement": "relative viability", "setting": "[21]; first compound 20 µM", "value": 1.09}, {"measurement": "relative viability", "setting": "[22]; first compound 0.2 µM", "value": 0.831}, {"measurement": "relative viability", "setting": "[22]; first compound 0.6325 µM", "value": 0.849}, {"measurement": "relative viability", "setting": "[22]; first compound 2 µM", "value": 0.671}, {"measurement": "relative viability", "setting": "[22]; first compound 6.325 µM", "value": 0.733}, {"measurement": "relative viability", "setting": "[22]; first compound 20 µM", "value": 0.882}]}
